Experimental data published in patent publication US11229611B2, “Clobazam transdermal delivery system and uses thereof” (TAHO Pharmaceuticals Ltd., priority 2020, dated 2022).
≈ marks a conversion by molar mass, not a printed value.

Experiments:
[1] = solubility and compatibility of clobazam in a variety of excipients; type: physicochemical
Experimental: Solubility and compatibility of clobazam were tested in a variety of excipients according to the following functions: (1) alcohols; (2) emollients/oils; (3) esters; (4) fatty acids; (5) fatty acid esters; (6) fatty alcohols; (7) solubilizers; (8) solvents; and (9) surfactants.

[2] = tested on: isolated human cadaver epidermis; assay: flux through skin of EVA/PIB multilaminate formulations; type: in vitro ADME
Excerpt: In certain embodiments, the adhesive composition contains the HMW and LMW PIB in weight ratios (HMW PIB: LMW PIB) in the range of about 3-40:97-60, in the range of about 5-25:95-75 and in the range of about 10-20:90-80. The ratio of HMW PIE to LMW PIE that provides an optimal adhesive for a specific drug agent will be dependent upon the identity and concentration of agent being delivered. As an example, in one effective embodiment the PIB adhesive includes 5 wt % HMW PIB material (such as OPPANOL L80, LlOO, and L 140 from BASF) and 95 wt % LMW PIB material (Such as OPPANOL BlO, BI 1, B12, and B13 from BASF).
Optionally, modification of flux of the drug through the PIB can be effected by incorporating in the adhesive material such as micronized, crosslinked polyvinylpyrrolidone (PVP), such as CROSPOVIDONE (Kollidon CL-CY from BASF typically with bulk density between 0.2-0.3 g/cm3 and particle size D90 of 10-20 micron). Such PVP improves the permeability of clobazam material through the PIB layer.
Varying the amounts of CROSPOVIDONE in the PIB adhesive would result in fine-tuning the flux of clobazam to desired levels. For example, multilaminate formulations containing different PVP amounts were tested for the effect of such variation on flux through skin. The multilaminate formulations contained 35 wt % of clobazam base in EVA40, an EVA12 as tie layer and PIB adhesive (5:95 L100:B12 PIB) with 12 wt % or 18 wt % PVP were tested. […] A formulation containing 30 wt % clobazam base and 15 wt % PVP was also tested. The flux of clobazam formulation from this formulation was 6.3μg/(cm^2 h). […] PIB polymers are available commercially, e.g., under the tradename VISTANEX™ from Exxon Chemical. The amount of PVP in the resulting adhesive can be about 1 wt % to 30 wt %, about 5 wt % to 25 wt %, about 8 wt % to 20 wt %.
Transdermal flux can be measured with a standard procedure using Franz cells or using an array of formulations. Flux experiments were done on isolated human cadaver epidermis. With Franz cells, in each Franz diffusion cell a disc of epidermis is placed on the receptor compartment. A transdermal delivery system is placed over the diffusion area (1.98 cm^2) in the center of the receptor. The donor compartment is then added and clamped to the assembly. At time 0, receptor solution (between […] and 24 ml, exactly measured) is added into the receptor compartment and the cell maintained at 35° C. This temperature yields a skin surface temperature of 30-32° C. Samples of the receptor compartment are taken periodically to determine the flux through skin and analyzed by HPLC. An alternative way to test flux is to use an array of patches. In testing flux with an array of transdermal miniature patches, formulations are prepared by mixing stock solutions of each of the mixture components of formulation in organic solvents (about 15 wt % solids), followed by a mixing process. The mixtures are then aliquoted onto arrays as 4-mm diameter drops and allowed to dry, leaving behind solid samples or “dots.” (i.e., mini-patches). The miniature patches in the arrays are then tested individually for flux through skin using a permeation array, whose principle of drug flux from a patch formulation through epidermis to a compartment of receptor medium is similar to that of Franz cells (an array of miniature cells). […] Receptor fluid is auto-sampled from each of the permeation wells at regular intervals and then measured by HPLC to determine the flux of the drug.

[3] = cited from earlier work

For `CN1C(=O)CC(=O)N(c2ccccc2)c2cc(Cl)ccc21` [clobazam, 7-Chloro-1-methyl-5-phenyl-1,5-dihydro benzo[b][1,4]diazepine-2,4-dione], the “solubility among various alcohols” value ([1]; in 4-allyl-2-ethoxyphenol) was “good solubility”, the “solubility among various surfactants, polymers and oils” value ([1]; in Caprylocaproyl polyoxyl-8 glycerides and transcutol P) was “some solubility” and the solubility in solvents ([1]; in DCM, chloroform, DMA, DMI, DMSO and NMP) was “good solubility”. For the same compound, the “solubility among various fatty acids and fatty acid esters” value ([1]; in methyl L-lactate, levulinic acid and ethyl levulinate) was “good solubility”, the “average clobazam base flux” value ([2]; 5:95 L100:B12 PIB adhesive with 20 wt % CROSPOVIDONE) was 33.3 μg/(cm^2-h) and the flux ([2]; 35 wt % clobazam base in EVA40, EVA12 tie layer, PIB adhesive (5:95 L100:B12) with 12 wt % PVP) was 5.4 μg/(cm^2 h). The flux ([2]; 35 wt % clobazam base in EVA40, EVA12 tie layer, PIB adhesive (5:95 L100:B12) with 18 wt % PVP) was 7.5 μg/(cm^2 h), the “clobazam base average flux” value ([2]; clobazam 35 wt % in EVA40 drug layer 4-7 mil, PIB adhesive 5 wt % HMW / 95 wt % LMW, 2-3 mil) was 5.5 μg/cm^2-h and the flux ([2]; formulation with 30 wt % clobazam base and 15 wt % PVP) was 6.3 μg/(cm^2 h). For the same compound, the solubility in water ([3]; water at 25° C.) was 70 microgram/ml and the “water Solubility” value ([3]; water) was 164 µg/mL (≈ 545 µM).
